Results as given in patent US10952952B2, “Skin lightening composition” (Conopco, Inc., priority 2015, dated 2021).

What was measured:
Format in all cases: cell-based
[1] = system: Human primary melanocytes; test: Melanin Content Assay (MCA); details: for inhibition at 5000 µM / inhibition at 10000 µM: Homo sapiens, Melanocyte, 72 hours, vs untreated cells, read-out: % Inhibition in Melanin Synthesis (Mean ± SD); for inhibition at 5000 µM: 5 mM; for inhibition at 10000 µM: 10 mM
Method: Human primary melanocytes were grown in melanocytes growth medium (MGM) with human melanocyte growth supplement. 500 μL/well (5×10^4 cells/well) of this solution was plated in a 24 wells plate and incubated in an incubator (Thermo Scientific, Model 3111) at 37° C. with 5% CO2 atmosphere. After 24 hours of incubation, cell cultures were treated with the lead actives dissolved in water. The control was cells treated with the vehicle (water) alone. The cells were again incubated for 72 hours in an incubator (Thermo Scientific, Model 3111; conditions: 5% CO2, at 37° C.). At the end of the incubation the culture medium was replaced with 120μl/well of MCA reagent ([…] DMSO in 1N NaOH) and incubated for 1 hour at 60° C. in a shaker incubator. The supernatant was then transferred to a 384 well plate. The absorbance was measured spectrophotometric at 405 nm with a micro plate reader (GEnios Pro, Tecan). The spectrophotometric OD at 405 nm for untreated cells (NO active) was considered as 100% melanin content. In comparison to the untreated cells, the percentage inhibition of the treated cell samples were calculated.

[2] = system: human primary melanocytes and HaCat keratinocytes; test: Melanosome Transfer Assay (MTA), Example 2; details: 5 mM, 72 hours co-culture, read-out: % inhibition in keratinocytes containing melanosome (Mean ± SD)
Method: 1.3×10^4 cells of human primary melanocytes (C-202-5C, Lonza) prepared in culture medium (MGM:KGM=1:1) and 2.6×10^4 HaCat keratinocytes prepared in culture medium (MGM:KGM=1:1) were mixed together and plated in a 48 well plate and incubated in an tissue culture incubator (Thermo Scientific, Model 3111) at 37° C. with 5% CO2 atmosphere. After 4 hours of incubation, co-cultures were treated (added) with the samples and again incubated for 72 hours in the same incubator under the same conditions. After culturing for required period (72 hours), the cells were prepared for flow cytometry analysis by following the procedure as set out below: • 1. […]
FACS (Florescence activated cell sorter) was prepared by adding 0.1% Saponin and >0.05% (0.05% wt/volume) Fetal Bovine serum in PBS mixed with Alexa 488 conjugated goat anti-Trp1 antibody (TRP1 Alexa 488 (TRP1, tyrosinase related protein is an specific melanosome marker protein, Santacruz, catalog No: sc-10443) (1 μL/100 μL) and anti-pan cytokeratin antibody (pan cytokeratin, cytokeratin is a specific marker for keratinocytes) PE, Santacruz, catalog No: sc-8018) (1 μL/100 μL). […] The cell pellets were suspended in PBS and transferred to round bottom 96 wells plate and analysed by flow cytometry (BD Biosciences, Model—BD Facscalibur with BD HTS) Calculation of Melanosome Transfer (% Transfer): […]

[3] = system: human primary melanocytes and HaCat keratinocytes; test: Melanosome Transfer Assay (MTA), Example 3; details: 72 hours co-culture; for % Inhibition in melanosome transfer: 15 mM; for inhibition at 5000 µM / inhibition at 10000 µM: Homo sapiens, HaCaT; for inhibition at 5000 µM: 5 mM; for inhibition at 10000 µM: 10 mM
Method: 1.3×10^4 cells of human primary melanocytes (C-202-5C, Lonza) prepared in culture medium (MGM:KGM=1:1) and 2.6×10^4 HaCat keratinocytes prepared in culture medium (MGM:KGM=1:1) were mixed together and plated in a 48 well plate and incubated in an tissue culture tissue culture incubator (Thermo Scientific, Model 3111) at 37° C. with 5% CO2 atmosphere. After 4 hours of incubation, co-cultures were treated with the samples and again incubated for 72 hours in the same incubator under the same conditions. After culturing for required period (72 hours), the cells were prepared for flow cytometry analysis by following the procedure as set out below: • 1. Cells were isolated from 48 wells plate into a V-bottom plate (Torson, 941396) with 200 μl of trypsin EDTA buffer and the trypsin activity was neutralized with 200 μl of trypsin neutralizer and pelleted down to 350 g using a cold centrifuge (Plasto Crafts, Model no: Roat 4R-V/FM). • 2. To the pellet, 100 μl of 1% para-formaldehyde was added and incubated for 10 minutes on ice. • 3. Cells were then centrifuged (1000 G) with 100 μl of phosphate buffer saline (PBS) for 10 minutes and the pellet was used for staining with a solution as stated in below step 4. The PBS was prepared by adding 4 g sodium chloride, 0.1 g potassium chloride, 0.58 g disodium hydrogen phosphate and 0.1 g potassium dihydrogen phosphate into 500 ml of autoclaved Mili-Q water.
FACS buffer (Florescence activated cell sorter) was prepared by adding 0.1% Saponin and >0.05% (0.05% wt/volume) Fetal Bovine serum in PBS mixed with Alexa 488 conjugated goat anti-Trp1 antibody (TRP1 Alexa 488 (TRP1, tyrosinase related protein is an specific melanosome marker protein, Santacruz, catalog No: sc-10443) (1 μL/100 μL) and anti-pan cytokeratin antibody (pan cytokeratin, cytokeratin is a specific marker for keratinocytes) PE, Santacruz, catalog No: sc-8018) (1 μL/100 μL). The above mention FACS buffer was added to the pellet in each well (100 μL/well) and incubated for 60 minutes on ice. • 4. The cells were then washed with PBS and centrifuged down to ˜1000 G using a cold centrifuge (Plasto crafts, Roat 4R-V/FM) • 5. The cell pellets were suspended in PBS and transferred to round bottom 96 wells plate and analyzed by flow cytometry (BD Biosciences, Model—BD Facs calibur with BD HTS) Calculation of Melanosome Transfer (% Transfer):
Keratinocytes containing transferred melanosomes were detected by flow cytometry analysis.
The % transfer in untreated cells (NO active) was considered as 100%. In comparison to the untreated cells, the percentage transfer of the treated cell samples were calculated.

| SMILES | inhibition at 5000 µM [1] [%] | inhibition at 10000 µM [1] [%] | reduction of melanin content in primary human melanocytes ([1]; niacinamide by itself, at 5 mM and 10 mM) | inhibition at 5000 µM [2] [%] | % Inhibition in melanosome transfer [3] | inhibition at 5000 µM [3] [%] | inhibition at 10000 µM [3] [%] |
| --- | --- | --- | --- | --- | --- | --- | --- |
| NC(=O)c1cccnc1 [Niacinamide, pyridine-3-carboxamide] | 3 ± 0.4 | 8 ± 2.3 | modest reduction | 15.1 ± 0.4 | cell death | 16.5 | 25 |
| NC(=O)c1ccccn1 [Picolinamide, pyridine 2-carboxamide] | 14 ± 0.9 | 23 ± 3.3 |  |  | cell death | -8 | 18 |
